Data set [1] deals with HIEC-6/HepG2 cell coculture system.
Description: Based on the daily dose used in the clinical trials and the current recommendations of the bottle, 1200 mg of Genacol CH product (bovine) or a generic CH product (bovine) was added (3% w/v) to sterile ddH2O (Bernado & Azarcon, 2012; Bruyère et al., 2012; Feliciano et al., 2017). Three independent digestions for each CH product were completed. The vessels were placed in a 37° C. water bath, with continuous agitation. A pepsin solution was added, the pH adjusted to 2 and incubated for 30 min. Then, a bile solution was added, the pH adjusted to 7.5 and incubated for 90 min at 37° C. Pepsin (4% w/w protein basis) and pancreatin (4% w/w protein basis) were added (Aleman et al., 2013). The pancreatin digestion was stopped with the addition of NaOH, until the pH was 10 and the resulting digesta was cooled and frozen at −80° C. Digesta subsamples were taken and filtered using 0.2 μm syringe filters.
The final digesta was filtered using a molecular weight cut off (MWCO) of 10 kDa in a stirred Amicon™ ultrafiltration membrane reactor at 4° C. under a nitrogen gas pressure of 40 psi (Iskandar et al., 2015). The filtrates were freeze-dried at −50 to −60° C. and 0.85 mBar (0.64 mm Hg) (Gamma 1-16 LSC, Christ, Osterode am Harz, Germany) and stored at −80° C. until used in cell culture.
Two bovine-sourced CH products were used: Original Formula® (Genacol, Blainville, QC) (CH-GL) and a generic brand (such as Selection™, Uniprix, Quebec, Canada) (CH-GR). HIEC-6 (ATCC® CRL-3266™) and Hep G2 (ATCC® HB-8065™) cells were purchased from ATCC to represent the gastrointestinal and liver wall lining, respectively. HIEC-6 cells were cultured using OptiMEM™ 1 Reduced Serum Medium (Gibco Catalog No. 31985) with 20 mM HEPES, 10 mM GlutaMAX™ (Gibco Catalog No. 35050), 10 ng/mL Epidermal Growth Factor, 4% fetal bovine serum (FBS). HepG2 cells were grown using ATCC-formulated Eagle's Minimum Essential Medium (Catalog No. 30-2003), with 10% FBS. Cells were maintained at 37° C. with 90% relative humidity (RH) and 5% C02 in culture medium as described herein.
HIEC-6/HepG2 cell coculture system was used to determine the bioavailability of key bioactive peptides from CHs after digestion. HIEC-6 and HepG2 cells were cultured separately but then later combined in a transwell system.
HIEC-6 cells were seeded onto 24-well polyester (PET) ThinCert™ inserts from Greiner Bio-One (Kremsmünster, Austria) at a density of 1×10^5 cells/well. The medium was changed every 2 days and the cells were grown for a total of 8-9 days. Transepithelial electrical resistance (TEER) was measured using a volt-ohmmeter to assess integrity of monolayer. […] Three individual plate experiments were completed for each CH product.
At time 0, the apical medium was replaced with medium containing 2 mg/ml of freeze-dried CH dissolved in medium using either the Genacol (GL) peptide or the Generic (GR) CH products. HepG2 cells were added to the basolateral side of the transwell (1 million cells/mL). The plates were incubated for 2 h at 37° C., 5% C02. Subsamples were taken at time 0, and after 2 h.
For data set [2], the target named is dipeptidyl peptidase-4 (DPP-IV) (Homo sapiens, UniProt P27487). The settings on record: literature; cited from earlier work.
The conditions of data set [3]: cited from earlier work.
Data set [4] deals with Caco-2 cells. The settings on record: cited from earlier work.
The conditions of data set [5]: human, in vivo, po, 80 mg/kg; cited from earlier work.

Where two headings read alike, the source gives them in different places. Non-standard residues stand in square brackets, D forms with d. Residues, ends and D or L forms follow the SMILES beside them. No end group written: not given here. Hyp = O=C(O)[C@@H]1C[C@@H](O)CN1

dipeptidyl peptidase-4 (DPP-IV), sequence (P27487 whole entry, species assumed): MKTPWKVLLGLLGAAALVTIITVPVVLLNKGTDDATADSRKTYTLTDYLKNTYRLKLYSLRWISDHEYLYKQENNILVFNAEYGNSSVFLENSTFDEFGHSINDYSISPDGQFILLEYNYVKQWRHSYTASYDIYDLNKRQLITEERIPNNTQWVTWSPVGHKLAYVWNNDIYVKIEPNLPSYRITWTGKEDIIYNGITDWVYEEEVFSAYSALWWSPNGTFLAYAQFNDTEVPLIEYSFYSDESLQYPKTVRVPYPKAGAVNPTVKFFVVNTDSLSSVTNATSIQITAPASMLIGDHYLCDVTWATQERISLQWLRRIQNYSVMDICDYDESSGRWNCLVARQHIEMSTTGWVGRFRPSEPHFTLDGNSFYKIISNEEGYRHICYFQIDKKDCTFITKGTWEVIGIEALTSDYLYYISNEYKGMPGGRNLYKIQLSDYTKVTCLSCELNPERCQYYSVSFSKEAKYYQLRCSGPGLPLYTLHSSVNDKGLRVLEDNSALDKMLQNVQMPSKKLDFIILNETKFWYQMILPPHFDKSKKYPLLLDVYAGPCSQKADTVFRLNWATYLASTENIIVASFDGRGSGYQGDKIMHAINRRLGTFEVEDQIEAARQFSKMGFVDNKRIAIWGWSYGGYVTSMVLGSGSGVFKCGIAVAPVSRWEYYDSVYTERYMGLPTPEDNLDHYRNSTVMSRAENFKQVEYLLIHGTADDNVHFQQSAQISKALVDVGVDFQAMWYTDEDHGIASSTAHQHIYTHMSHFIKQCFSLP

For `NCC(=O)N1CCC[C@H]1C(=O)O` [Gly-Pro] (H-Gly-Pro-OH; N-terminus and C-terminus assumed), the “Peptide concentration, Basolateral T0” value in data set [1] was 0 ± 0 µg/mL.

Consider Gly-Pro-Ala, for which the “activity against DPP-IV” value in data set [2] is on record as “only Gly-Pro-Hyp showed any activity”.

For the compound LPYPY, in data set [3] (milk-derived peptides, literature), the permeability was 0.05%.

Take HLPLP: in data set [3] (not told), the permeability is listed as 0.018%.

On to YPY, for which, in data set [3] (not told), the permeability is recorded as 5.56%.

SDK: the permeability in data set [3] (not told) is 21.68%.

`NCC(=O)N1CCC[C@H]1C(=O)N1C[C@H](O)C[C@H]1C(=O)O` [Gly-Pro-Hyp] (H-Gly-Pro-[Hyp]-OH; N-terminus and C-terminus assumed): the “Peptide concentration, Basolateral T0” value in data set [1] stood at 0 ± 0 µg/mL. Further, in data set [4], the “percentage transported across the cell monolayer” value was 3.59%. Also, in data set [5], the “greatest content found in the blood” value was around 22 µM and the “time of peak blood content” value is listed as 1 h.

Turning to Gly-Ala-[Hyp], in data set [2], the “activity against DPP-IV” value is recorded as “only Gly-Pro-Hyp showed any activity”.

Turning to `C[C@H](N)C(=O)N1C[C@H](O)C[C@H]1C(=O)O` [Ala-Hyp] (H-Ala-[Hyp]-OH; N-terminus and C-terminus assumed), in data set [1], the “Peptide concentration, Basolateral T0” value is 0 ± 0 µg/mL.

As to `O=C(O)[C@@H]1C[C@@H](O)CN1C(=O)[C@@H]1CCCN1` [Pro-Hyp] (H-Pro-[Hyp]-OH; N-terminus and C-terminus assumed), the “Peptide concentration, Basolateral T0” value in data set [1] was 0 ± 0 µg/mL.

These data come from US20230374112A1, “Bioactive Collagen Peptides, Method Of Production Thereof, And Use Thereof” (CORPORATION GENACOL CANADA INC., priority 2020, published 2023).
